Tested on: blood-brain barrier of stroke rat
Experiment: Blood-brain barrier permeability of stroke rat (middle cerebral artery occlusion model) by Evans blue dye, optical image and IVIS 100 fluorescence imaging of the whole brain
Format: in vivo, SD (Sprague Dawley) rat
Details: for presence of blue dye in brain tissue (optical image, FIG. 2): 30 minutes distribution, transcardial perfusion
Source text: FIG. 1 is a schematic view of an evaluation process of the present invention. As shown, the invention is a process of evaluating the blood-brain barrier permeability of a stroke rat by using fluorescent substance. The process of the invention uses Evans blue dye having spontaneous fluorescence properties, in combination with the use of a new non-invasive in vivo imaging system (IVIS), to obtain fluorescent signals so as to assess the change in the blood-brain barrier permeability of rodents after a cerebral artery stroke model surgery. In operation, an Evans blue dye 11 is injected into a stroke rat 1 of middle cerebral artery occlusion model. A non-invasive in vivo imaging system 12 is used to detect the fluorescence distribution of the whole brain, and obtain images combined by the fluorescence images and optical images for the whole brain tissue. Thereby, the change in the blood-brain barrier permeability of the stroke rat can be completely realized.
FIG. 2 is an optical image of the whole brain tissue after the injection of Evans blue dye according to the invention. FIG. 3 is an integrated image combined the fluorescence images with the optical images by using an IVIS 100 system according to the invention. As shown, in a preferred embedment, the invention uses a SD (Sprague Dawley) rat as the stroke animal model subject to transient bilateral common carotid artery and right middle cerebral artery ligation. After the rat is anesthetized, the surgery procedure is described roughly as follows. The skull of the rat is opened by drilling in order to find the right middle cerebral artery. A 10-0 needle is used to take the right middle cerebral artery and rotate it 90 degrees. It is ensured that the blood cannot flow smoothly under the observation by a microscope. Then, both sides of the common carotid artery are subject to ligation for 90 minutes. After the stitches have been removed, wounds are sutured to allow the rat to be recovered.
Three groups are provided in the experiment, in which a sham group is a rat whose skull is opened without the bilateral common carotid artery and right middle cerebral artery ligation so as to exclude the impact caused by drilling the skull; a control group is the blank rat without any surgery; and a surgery group is a stroke rat whose skull is opened to perform the middle cerebral artery ligation.
Evans blue dye is dissolved in saline and injected intravenously into the rat via its tail 24 hours after surgery. After distribution for 30 minutes, the rat is anesthetized for transcardial perfusion in order to wash away the dye within the blood vessels. The IVIS 100 (Caliper) system is used to detect the fluorescence distribution of the whole brain tissue. The Evans blue dye can be excited by the light of 620 nanometer (nm) wavelengths to emit the light of 680 nm wavelength which can be detected by the IVIS 100 system and further converted into images (as shown in FIG. 3).

For `Cc1cc(-c2ccc(/N=N/c3ccc4c(S(=O)(=O)O)cc(S(=O)(=O)O)c(N)c4c3O)c(C)c2)ccc1/N=N/c1ccc2c(S(=O)(=O)O)cc(S(=O)(=O)O)c(N)c2c1O` [Evans blue dye, Evans blue], the “fluorescence of whole brain tissue (IVIS 100, excitation 620 nm, emission 680 nm, FIG. 3)” value (“fluorescence of whole brain tissue” below) (control group (blank rat without any surgery)) was “fluorescence is not obvious in the brain tissue”, the “presence of blue dye in brain tissue (optical image, FIG. 2)” value (“presence of blue dye in brain tissue” below) (control group (blank rat without any surgery), dye i.v. via tail) was “no presence of the blue dye in the brain tissue” and the “fluorescence of whole brain tissue” value (sham group (skull opened without ligation)) was “fluorescence is not obvious in the brain tissue”. For the same compound, the “presence of blue dye in brain tissue” value (sham group (skull opened without ligation), dye i.v. via tail 24 hours after surgery) was “no presence of the blue dye in the brain tissue”, the “fluorescence of whole brain tissue” value (surgery group (stroke rat), 24 hours after stroke surgery) was “fluorescence signals are detected in the right brain” and the “presence of blue dye in brain tissue” value (surgery group (stroke rat), dye i.v. via tail 24 hours after surgery) was “leak into the interstitial cells of the right brain”.
